From patent US20240218022A1, “ANTI-VISTA MACROCYCLIC PEPTIDES AND COMPOSITIONS” (BRISTOL-MYERS SQUIBB COMPANY, priority 2022, published 2024)
Where two headings read alike, the source gives them in different places. Starred links: 1 amine or outer side, 2 acyl side, 3 side chain; linkers in the order of their positions; H or OH if unused. Positions of bridges follow the written chain, without caps; N, C: chain ends. Non-standard residues stand in square brackets, D forms with d. Residues, ends and D or L forms follow the SMILES beside them. Phe(4-CF3) = N[C@@H](Cc1ccc(C(F)(F)F)cc1)C(=O)O; Phe(3-Me) = Cc1cccc(C[C@H](N)C(=O)O)c1; γGlu = O=C(O)[C@H](CCC(=O)[*:2])N[*:1]; 2Nal = N[C@@H](Cc1ccc2ccccc2c1)C(=O)O; βAsp = O=C(O)[C@H](CC(=O)[*:2])N[*:1]; Cit = NC(=O)NCCC[C@H](N)C(=O)O; Ahp(2) = CCCCC[C@H](N)C(=O)O; NMeNle = CCCC[C@H](NC)C(=O)O; Tle = CC(C)(C)[C@H](N)C(=O)O; NMeV = CN[C@H](C(=O)O)C(C)C; NMeS = CN[C@@H](CO)C(=O)O; NHexGly = CCCCCCNCC(=O)O; Nle = CCCC[C@H](N)C(=O)O; Orn = NCCC[C@H](N)C(=O)O; Aun = NCCCCCCCCCCC(=O)O; Aze = O=C(O)[C@@H]1CCN1; Dab = NCC[C@H](N)C(=O)O; AEEA = NCCOCCOCC(=O)O

Molecular target: T1, mouse VISTA (mVISTA) (Mus musculus, UniProt Q9D659)
T1 construct: expressed in transfected cells; host or cells: Human embryonic kidney 293T cells
T1 sequence (Q9D659 33-308): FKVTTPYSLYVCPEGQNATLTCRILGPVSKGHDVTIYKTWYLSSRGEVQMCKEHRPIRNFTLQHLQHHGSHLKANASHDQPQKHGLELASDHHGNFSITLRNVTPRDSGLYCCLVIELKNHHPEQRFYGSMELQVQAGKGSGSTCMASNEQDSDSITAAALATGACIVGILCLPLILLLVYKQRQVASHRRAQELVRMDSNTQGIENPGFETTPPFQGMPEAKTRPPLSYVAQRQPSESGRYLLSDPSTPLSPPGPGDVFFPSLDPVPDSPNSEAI
Experiment: Cell-Based Binding High-Content Assay For mVISTA (HC CBA mVISTA)
Procedure, shortened: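 mVISTA-293T, 4,000 cells/well; cpd ± washout step; biotin-peptide 2 nM final, 30 min RT; SA-Alexa 647 30 min; formaldehyde/Hoechst fix; HCS imaging; 4PL IC50.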

[1] = 293T cells expressing mouse VISTA, competition with biotinylated peptide (2 nM), read-out: HC CBA mVISTA IC50

CCCCCCN1CC(=O)N[C@@H](Cc2ccc(O)cc2)C(=O)N[C@@H](CCCC)C(=O)N[C@@H](CC(N)=O)C(=O)N[C@@H](CCCNC(=N)N)C(=O)N(C)[C@@H](CCCC)C(=O)N[C@@H](CCCCC)C(=O)N2CCC[C@H]2C(=O)N[C@@H](C(C)C)C(=O)N[C@@H](CC(=O)O)C(=O)N[C@H](C(=O)N[C@@H](CCCCN)C(=O)N[C@@H](CCC(N)=O)C(=O)O)CSCC(=O)N[C@@H](Cc2ccc3ccccc3c2)C(=O)N[C@@H](Cc2c[nH]c3ccccc23)C(=O)N[C@@H](CC(=O)O)C1=O [compound 1137] ({CH2CO}-[2Nal]WD[NHexGly]Y[Nle]NR[NMeNle][Ahp(2)]PVDCKQ-OH; thioether N-14)
IC50 (read-out: HC CBA mVISTA IC50): 0.0224 µM

CCCCCCN1CC(=O)N[C@@H](Cc2ccc(O)cc2)C(=O)N[C@@H](CCCC)C(=O)N[C@@H](CC(N)=O)C(=O)N[C@@H](CCCNC(=N)N)C(=O)N(C)[C@@H](CCCC)C(=O)N[C@@H](CCCCC)C(=O)N2CCC[C@H]2C(=O)N[C@@H](C(C)(C)C)C(=O)N[C@@H](CO)C(=O)N[C@H](C(=O)N[C@@H](CC(=O)NCCOCCOCC(=O)N[C@@H](CC(=O)O)C(=O)NCCOCCOCC(=O)NCCCCCCCCCCC(=O)O)C(=O)O)CSCC(=O)N[C@@H](Cc2ccccc2)C(=O)N[C@@H](Cc2ccc(O)cc2)C(=O)N[C@@H](CC(=O)O)C1=O [compound 2021] ({CH2CO}-FYD[NHexGly]Y[Nle]NR[NMeNle][Ahp(2)]P[Tle]SC[βAsp][AEEA]D[AEEA][Aun]-OH; thioether N-14)
IC50 (cell-based binding high-content assay, mVISTA, read-out: HC CBA miPr ISTA IC50): 0.0195 µM

CCCCCCN1CC(=O)N[C@@H](Cc2ccc(O)cc2)C(=O)N[C@@H](CCCC)C(=O)N[C@@H](CC(N)=O)C(=O)N[C@@H](CCCNC(=N)N)C(=O)N[C@@H](CC(C)C)C(=O)N[C@@H](CCCCC)C(=O)N2CCC[C@H]2C(=O)N[C@@H](C(C)C)C(=O)N[C@@H](CC(=O)O)C(=O)N[C@H](C(=O)NCC(=O)O)CSCC(=O)N[C@@H](Cc2ccc(C(F)(F)F)cc2)C(=O)N[C@@H](Cc2c[nH]c3ccccc23)C(=O)N[C@@H](CC(=O)O)C1=O [compound 1459] ({CH2CO}-[Phe(4-CF3)]WD[NHexGly]Y[Nle]NRL[Ahp(2)]PVDCG-OH; thioether N-14)
IC50 (the 20th table, scaffold drawing 23, read-out: HC CBA mVISTA IC50): 0.0234 µM

CCCCCCN1CC(=O)N[C@@H](Cc2ccc(O)cc2)C(=O)N[C@@H](CC(C)C)C(=O)N[C@@H](CC(=O)O)C(=O)N[C@@H](CCCNC(=N)N)C(=O)N[C@@H](CC(C)C)C(=O)N[C@@H](CCCCC)C(=O)N2CCC[C@H]2C(=O)N[C@@H](C(C)C)C(=O)N[C@@H](CO)C(=O)N[C@H](C(=O)NCC(N)=O)CSCC(=O)N[C@@H](Cc2ccccc2)C(=O)N[C@@H](Cc2ccc(O)cc2)C(=O)N[C@@H](CC(=O)O)C1=O [Example 1041] ({CH2CO}-FYD[NHexGly]YLDRL[Ahp(2)]PVSCG-NH2; thioether N-14)
IC50 [1]: 0.0249 µM

CCCCCCN1CC(=O)N[C@@H](Cc2ccc(O)cc2)C(=O)N[C@@H](C(C)C)C(=O)N[C@@H](CC(N)=O)C(=O)N[C@@H](CCCNC(=N)N)C(=O)N[C@@H](CC(C)C)C(=O)N[C@@H](CCCCC)C(=O)N2CCC[C@H]2C(=O)N[C@@H](C(C)C)C(=O)N2CCC[C@H]2C(=O)N[C@H](C(=O)NCC(=O)O)CSCC(=O)N[C@@H](Cc2ccccc2)C(=O)N[C@@H](Cc2ccc(O)cc2)C(=O)N[C@@H](CC(=O)O)C1=O [compound 1122] ({CH2CO}-FYD[NHexGly]YVNRL[Ahp(2)]PVPCG-OH; thioether N-14)
IC50 (read-out: HC CBA mVISTA IC50): 0.0376 µM

CCCCCCN1CC(=O)N[C@@H](Cc2ccc(O)cc2)C(=O)N[C@@H](CC(C)C)C(=O)N[C@@H](CC(N)=O)C(=O)N[C@@H](CCCNC(=N)N)C(=O)N[C@@H](CC(C)C)C(=O)N[C@@H](CCCCC)C(=O)N2CCC[C@H]2C(=O)N[C@@H](C(C)C)C(=O)N[C@@H](CO)C(=O)N[C@H](C(=O)NCC(N)=O)CSCC(=O)N[C@@H](Cc2ccccc2)C(=O)N[C@@H](Cc2ccc(O)cc2)C(=O)N[C@@H](CC(=O)O)C1=O [Example 1040] ({CH2CO}-FYD[NHexGly]YLNRL[Ahp(2)]PVSCG-NH2; thioether N-14)
IC50 [1]: 0.0054 µM

CCCCCCN1CC(=O)N[C@@H](Cc2ccc(O)cc2)C(=O)N[C@@H](CCCC)C(=O)N[C@@H](CC(N)=O)C(=O)N[C@@H](CCCNC(=N)N)C(=O)N(C)[C@@H](CCCC)C(=O)N[C@@H](CCCCC)C(=O)N2CCC[C@H]2C(=O)N[C@@H](C(C)C)C(=O)N[C@@H](CC(=O)O)C(=O)N[C@H](C(=O)N[C@@H](CCN)C(=O)N[C@@H](CCC(N)=O)C(=O)O)CSCC(=O)N[C@@H](Cc2ccc3ccccc3c2)C(=O)N[C@@H](Cc2c[nH]c3ccccc23)C(=O)N[C@@H](CC(=O)O)C1=O [compound 1134] ({CH2CO}-[2Nal]WD[NHexGly]Y[Nle]NR[NMeNle][Ahp(2)]PVDC[Dab]Q-OH; thioether N-14)
IC50 (read-out: HC CBA mVISTA IC50): 0.0137 µM

CCCCCCN1CC(=O)N[C@@H](Cc2ccc(O)cc2)C(=O)N[C@@H](CC(C)C)C(=O)N[C@@H](CC(N)=O)C(=O)N[C@@H](CCCNC(=N)N)C(=O)N(C)[C@@H](C(C)C)C(=O)N[C@@H](CCCCC)C(=O)N2CCC[C@H]2C(=O)N[C@@H](C(C)(C)C)C(=O)N[C@@H](CO)C(=O)N[C@H](C(=O)N[C@@H](CCC(=O)NCCCCCCCCCCC(=O)O)C(=O)O)CSCC(=O)N[C@@H](Cc2ccccc2)C(=O)N[C@@H](Cc2ccc(O)cc2)C(=O)N[C@@H](CC(=O)O)C1=O [Example 2133] ({CH2CO}-FYD[NHexGly]YLNR[NMeV][Ahp(2)]P[Tle]SC[γGlu][Aun]-OH; thioether N-14)
IC50 (read-out: HC CBA mVISTA IC50): 0.024 µM

CCCCCCN1CC(=O)N[C@@H](Cc2ccc(O)cc2)C(=O)N[C@@H](CCCC)C(=O)N[C@@H](CC(=O)O)C(=O)N[C@@H](CCCN)C(=O)N[C@@H](CC(C)C)C(=O)N[C@@H](CCCCC)C(=O)N2CCC[C@H]2C(=O)N[C@@H](C(C)C)C(=O)N[C@@H](CC(=O)O)C(=O)N[C@H](C(=O)N[C@@H](CO)C(N)=O)CSCC(=O)N[C@@H](Cc2cccc(C)c2)C(=O)N[C@@H](Cc2ccc(O)cc2)C(=O)N[C@@H](CC(=O)O)C1=O [compound 1436] ({CH2CO}-[Phe(3-Me)]YD[NHexGly]Y[Nle]D[Orn]L[Ahp(2)]PVDCS-NH2; thioether N-14)
IC50 (the 19th table, scaffold drawing 22, read-out: HC CBA mVISTA IC50): 0.0106 µM

CCCCCCN1CC(=O)N[C@@H](Cc2ccc(O)cc2)C(=O)N[C@@H](CCCC)C(=O)N[C@@H](CC(N)=O)C(=O)N[C@@H](CCCNC(=N)N)C(=O)N(C)[C@@H](CCCC)C(=O)N[C@@H](CCCCC)C(=O)N2CC[C@H]2C(=O)N[C@@H](C(C)C)C(=O)N[C@@H](CO)C(=O)N[C@H](C(=O)N[C@@H](CC(=O)NCCOCCOCC(=O)NCCCCCCCCCCC(=O)O)C(=O)O)CSCC(=O)N[C@@H](Cc2ccccc2)C(=O)N[C@@H](Cc2c[nH]c3ccccc23)C(=O)N[C@@H](CC(=O)O)C1=O [Example 2184] ({CH2CO}-FWD[NHexGly]Y[Nle]NR[NMeNle][Ahp(2)][Aze]VSC[βAsp][AEEA][Aun]-OH; thioether N-14)
IC50 (read-out: HC CBA mVISTA IC50): 0.0231 µM

CCCCCCN1CC(=O)N[C@@H](Cc2ccc(O)cc2)C(=O)N[C@@H](CC(C)C)C(=O)N[C@@H](CC(N)=O)C(=O)N[C@@H](CCCNC(=N)N)C(=O)N(C)[C@@H](CO)C(=O)N[C@@H](CCCCC)C(=O)N2CCC[C@H]2C(=O)N[C@@H](C(C)(C)C)C(=O)N[C@@H](CO)C(=O)N[C@H](C(=O)N[C@@H](CC(=O)NCCOCCOCC(=O)N[C@@H](CC(=O)O)C(=O)NCCOCCOCC(=O)NCCCCCCCCCCC(=O)O)C(=O)O)CSCC(=O)N[C@@H](Cc2ccccc2)C(=O)N[C@@H](Cc2ccc(O)cc2)C(=O)N[C@@H](CC(=O)O)C1=O [compound 2068] ({CH2CO}-FYD[NHexGly]YLNR[NMeS][Ahp(2)]P[Tle]SC[βAsp][AEEA]D[AEEA][Aun]-OH; thioether N-14)
IC50 (cell-based binding high-content assay, mVISTA, read-out: HC CBA miPrISTA IC50): 0.0299 µM

CCCCCCN1CC(=O)N[C@@H](Cc2ccc(O)cc2)C(=O)N[C@@H](CCCC)C(=O)N[C@@H](CC(N)=O)C(=O)N[C@@H](CCCNC(N)=O)C(=O)N[C@@H](CC(C)C)C(=O)N[C@@H](CCCCC)C(=O)N2CCC[C@H]2C(=O)N[C@@H](C(C)C)C(=O)N[C@@H](CC(=O)O)C(=O)N[C@H](C(=O)NCC(=O)O)CSCC(=O)N[C@@H](Cc2ccc3ccccc3c2)C(=O)N[C@@H](Cc2ccc(O)cc2)C(=O)N[C@@H](CC(=O)O)C1=O [Ex 1300] ({CH2CO}-[2Nal]YD[NHexGly]Y[Nle]N[Cit]L[Ahp(2)]PVDCG-OH; thioether N-14)
IC50 (cell-based binding high-content assay, mVISTA, the 16th table, read-out: HC CBA mVISTA IC50): 0.0049 µM

CCCCCCN1CC(=O)N[C@@H](Cc2ccc(O)cc2)C(=O)N[C@@H](CCCNC(=N)N)C(=O)N[C@@H](CC(N)=O)C(=O)N[C@@H](CCCNC(=N)N)C(=O)N[C@@H](CC(C)C)C(=O)N[C@@H](CCCCC)C(=O)N2CCC[C@H]2C(=O)N[C@@H](C(C)C)C(=O)N[C@@H](CC(=O)O)C(=O)N[C@H](C(=O)NCC(=O)O)CSCC(=O)N[C@@H](Cc2ccccc2)C(=O)N[C@@H](Cc2ccc(O)cc2)C(=O)N[C@@H](CC(=O)O)C1=O [Example 1012] ({CH2CO}-FYD[NHexGly]YRNRL[Ahp(2)]PVDCG-OH; thioether N-14)
IC50 [1]: 0.0211 µM

CCCCCCN1CC(=O)N[C@@H](Cc2ccc(O)cc2)C(=O)N[C@@H](CCCC)C(=O)N[C@@H](CC(=O)O)C(=O)N[C@@H](CCCN)C(=O)N[C@@H](CC(C)C)C(=O)N[C@@H](CCCCC)C(=O)N2CCC[C@H]2C(=O)N[C@@H](C(C)C)C(=O)N[C@@H](CO)C(=O)N[C@H](C(=O)NCC(=O)O)CSCC(=O)N[C@@H](Cc2ccccc2)C(=O)N[C@@H](Cc2c[nH]c3ccccc23)C(=O)N[C@@H](CC(=O)O)C1=O [Example 1355] ({CH2CO}-FWD[NHexGly]Y[Nle]D[Orn]L[Ahp(2)]PVSCG-OH; thioether N-14)
IC50 (read-out: HC CBA mVISTA IC50): 0.0338 µM
